Test results taken from patent US12649733B2, “3,6-diamino-pyridazin-3-yl derivatives, pharmaceutical compositions containing them and their uses as pro-apoptotic agents” (LES LABORATOIRES SERVIER, priority 2019, dated 2026).
pIC50, pKi: −log10 of the molar value.

What was measured:
MOLT-4 cells = test: MOLT-4 cell viability, MTT assay; type: cell-based; conditions: Homo sapiens, MOLT-4, 48 h, 48 h exposure
Description: (§1) MTT colorimetric assay is based on the mitochondrial reduction of tetrazolium salt by living cells. The viable cell number is proportional to the production of formazan salts, which can be read spectrophotometrically at 540 nm.
(§2) MOLT-4 and H146 cells were purchased from ATCC and cultivated in RPMI 1640 supplemented with 10% heat inactivated fetal bovine serum, penicillin (100 IU/ml), streptomycin (100 μg/ml) and L-glutamine (2 mM). Cells were cultured at 37° C. in a humidified atmosphere containing 5% CO2. Cells were seeded in 96 microwell plates (150 μL per well) and exposed to the compounds for 48 h (3.16 fold serially diluted; 9 concentrations each, triplicates). At the end of incubation time, 15 μL of MTT solution (5 mg/ml) were added per well and the cells were incubated for another 4 h. Then, 100 μL of 10% Sodium Dodecyl Sulfate (SDS)/HCl 10 mM were added per well and the plate was incubated overnight, before measurement of optical density at 540 nm. IC50s were calculated using standard four-parametric curve fitting.

H146 cells = test: H146 cell viability, MTT assay; type: cell-based; conditions: Homo sapiens, NCI-H146, 48 h, 48 h exposure
Description: as §1, §2

BCLXL = BCLXL (Homo sapiens, UniProt Q07817, V10N/V9A); test: Fluorescence polarisation assay (PUMA-based probe displacement); type: binding; note: 20 nM protein, 10 nM fluorescent probe
Description: Fluorescence polarization measures the rotation of a fluorescing species in solution, the larger the molecule the more polarized the fluorescence emission.
[[…]] (GST UniProtKB® primary accession number P08515 and BCLXL UniProtKB® primary accession number Q07817-1),
resulting in an increase in anisotropy. If a compound is added which competitively binds to the same site as the probe, thereby releasing it, anisotropy decreases due to the increased amount of free probe.
An 11-point serial dilution of each compound was prepared in DMSO, the final buffer conditions were 10 mM 4-(2-hydroxyethyl)-1-piperazineethanesulfonic acid [HEPES], 150 mM NaCl, 0.05% Tween 20, pH 7.4 and 5% DMSO. The final protein concentration in the assay was 20 nM with the fluorescent probe present at 10 nM. The experiments were incubated for 2 hours at 23° C. before fluorescence polarization was measured on a Biotek SynergyNeo plate reader (Excitation 485 nm, emission 525 nm, parallel and perpendicular reads). […] The KI values were determined from the IC50 values according to Cer et al, Nucleic Acids Res, 2009, Jul. 1: 37(WebServer issue): W441-W445.

Sequence of BCLXL (Q07817 with tags, fused parts or gaps V9A/V10N): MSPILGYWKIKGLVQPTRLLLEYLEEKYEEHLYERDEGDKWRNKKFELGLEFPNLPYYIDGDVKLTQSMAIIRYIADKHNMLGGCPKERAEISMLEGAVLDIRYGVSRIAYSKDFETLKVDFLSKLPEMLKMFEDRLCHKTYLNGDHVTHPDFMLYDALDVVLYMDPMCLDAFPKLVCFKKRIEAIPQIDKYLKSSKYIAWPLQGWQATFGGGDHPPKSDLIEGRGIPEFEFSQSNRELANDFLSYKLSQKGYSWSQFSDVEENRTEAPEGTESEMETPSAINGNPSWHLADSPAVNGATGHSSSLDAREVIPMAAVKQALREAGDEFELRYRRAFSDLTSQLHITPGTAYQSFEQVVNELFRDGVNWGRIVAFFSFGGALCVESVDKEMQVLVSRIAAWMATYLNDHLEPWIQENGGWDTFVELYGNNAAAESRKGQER

SMILES | pIC50 (MOLT-4 cells) | pIC50 (H146 cells) | pKi (BCLXL)
Cc1c(Nc2nc(C(=O)O)cs2)nnc(Nc2nc3cc(F)c(F)cc3s2)c1C [Example 57, 2-[[6-[(5,6-Difluoro-1,3-benzothiazol-2-yl)amino]-4,5-dimethyl-pyridazin-3-yl]amino]thiazole-4-carboxylic acid] | < 4.82 | 4.87 | 6.46
CC(C)c1cc(Nc2nc3ccccc3s2)nnc1Nc1nc(C(=O)O)cs1 [Example 6, 2-({6-[(1,3-Benzothiazol-2-yl)amino]-4-(propan-2-yl)pyridazin-3-yl}amino)-1,3-thiazole-4-carboxylic acid] |  | < 4.35 | 6.31
Cc1c(Nc2nc(C(=O)O)c(CCCOc3ccc(CCCN(C)C)cc3F)s2)nnc(Nc2nc3ccccc3s2)c1C [Example 22, 2-({6-[(1,3-Benzothiazol-2-yl)amino]-4,5-dimethylpyridazin-3-yl}amino)-5-(3-{4-[3-(dimethylamino)propyl]-2-fluorophenoxy}propyl)-1,3-thiazole-4-carboxylic acid] |  | 5.67 | 8.54
Cc1c(Nc2cccc(C(=O)O)n2)nnc(Nc2nc3ccccc3s2)c1C [Example 2, 6-({6-[(1,3-Benzothiazol-2-yl)amino]-4,5-dimethylpyridazin-3-yl}amino)pyridine-2-carboxylic acid] |  | 4.90 | 6.48
CCc1c(Nc2nc(C(=O)O)cs2)nnc(Nc2nc3ccccc3s2)c1C [Example 15, 2-({6-[(1,3-Benzothiazol-2-yl)amino]-4-ethyl-5-methylpyridazin-3-yl}amino)-1,3-thiazole-4-carboxylic acid] |  | < 4.82 | 7.43
CCc1c(Nc2nc3ccccc3s2)nnc(Nc2nc(C(=O)O)cs2)c1C [Example 16, 2-({6-[(1,3-Benzothiazol-2-yl)amino]-5-ethyl-4-methylpyridazin-3-yl}amino)-1,3-thiazole-4-carboxylic acid] |  | 5.09 | 7.28
Cc1c(Nc2nc3ccccc3s2)nnc(Nc2nc(C(=O)O)cs2)c1CO [Example 18, 2-({6-[(1,3-Benzothiazol-2-yl)amino]-4-(hydroxymethyl)-5-methylpyridazin-3-yl}amino)-1,3-thiazole-4-carboxylic acid] |  | < 4.82 | 7.11
Cc1c(Nc2nc(C(=O)O)cs2)nnc(Nc2nc3ccccc3s2)c1C(C)C [Example 10, 2-({6-[(1,3-Benzothiazol-2-yl)amino]-4-methyl-5-(propan-2-yl)pyridazin-3-yl}amino)-1,3-thiazole-4-carboxylic add] |  | 5.08 | 6.39
Cc1c(Nc2nc(C(=O)O)cs2)nnc(Nc2nc3c(C)cccc3s2)c1C [Example 48, 2-[[4,5-dimethyl-6-[(4-methyl-1,3-benzothiazol-2-yl)amino]pyridazin-3-yl]amino]thiazole-4-carboxylic acid] |  |  | 5.72
Cc1c(Nc2nc3ccccc3s2)nnc(Nc2nc(C(=O)O)cs2)c1C(C)C [Example 8, 2-({6-[(1,3-Benzothiazol-2-yl)amino]-5-methyl-4-(propan-2-yl)pyridazin-3-yl}amino)-1,3-thiazole-4-carboxylic acid] |  | 4.98 | 7.06
Cc1c(Nc2nc(C(=O)O)c(CCCOc3ccc(C(=O)N(C)C)cc3F)s2)nnc(Nc2nc3ccccc3s2)c1C [Example 14, 2-({6-[(1,3-Benzothiazol-2-yl)amino]-4,5-dimethylpyridazin-3-yl}amino)-5-{3-[4-(dimethylcarbamoyl)-2-fluorophenoxy]propyl}-1,3-thiazole-4-carboxylic acid] |  | 5.68 | 8.49

More lines, now with the values ahead:

pIC50 (MOLT-4 cells) | pIC50 (H146 cells) | pKi (BCLXL) | SMILES
< 4.82 | < 4.82 | < 5.00 | Cc1cc(N(C)c2nc(C(=O)O)c(N3CC[C@@H](OCc4ccccc4)C3)s2)nnc1Nc1nc2ccccc2s1 [Example 71, 2-({6-[(1,3-Benzothiazol-2-yl)amino]-5-methylpyridazin-3-yl}(methyl)amino)-5-[(3R)-3-(benzyloxy)pyrrolidin-1-yl]-1,3-thiazole-4-carboxylic acid]
5.79 | 4.96 | 8.55 | Cc1cc(N(C)c2nc(C(=O)O)c(N3CCC(COc4ccccc4)CC3)s2)nnc1Nc1nc2ccccc2s1 [Example 88, 2-({6-[(1,3-Benzothiazol-2-yl)amino]-5-methylpyridazin-3-yl}(methyl)amino)-5-[4-(phenoxymethyl)piperidin-1-yl]-1,3-thiazole-4-carboxylic acid]
5.41 | 5.27 | 8.05 | CC(C)c1cc(N(C)c2nc(C(=O)O)cs2)nnc1Nc1nc2ccccc2s1 [Example 34, 2-({6-[(1,3-Benzothiazol-2-yl)amino]-5-(propan-2-yl)pyridazin-3-yl}(methyl)amino)-1,3-thiazole-4-carboxylic acid]
5.53 | < 4.82 | > 9.00 | Cc1cc(N(C)c2nc(C(=O)O)c(N3CCC(OCc4ccccc4)CC3)s2)nnc1Nc1nc2ccccc2s1 [Example 75, 2-({6-[(1,3-Benzothiazol-2-yl)amino]-5-methylpyridazin-3-yl}(methyl)amino)-5-[4-(benzyloxy)piperidin-1-yl]-1,3-thiazole-4-carboxylic acid]
 | 5.09 | 6.74 | CC(C)c1cc(Nc2nc(C(=O)O)cs2)nnc1Nc1nc2ccccc2s1 [Example 5, 2-({6-[(1,3-Benzothiazol-2-yl)amino]-5-(propan-2-yl)pyridazin-3-yl}amino)-1,3-thiazole-4-carboxylic acid]
 |  | 6.05 | Cc1cc(N(C)c2nc(C(=O)O)c(C3CN(CC(C)C)C3)s2)nnc1Nc1nc2ccccc2s1 [Example 156, 2-({6-[(1,3-Benzothiazol-2-yl)amino]-5-methylpyridazin-3-yl}(methyl)amino)-5-[1-(2-methylpropyl)azetidin-3-yl]-1,3-thiazole-4-carboxylic acid]
 |  | 5.92 | Cc1cc(N(C)c2nc(C(=O)O)c(C3CN(C)C3)s2)nnc1Nc1nc2ccccc2s1 [Example 157, 2-({6-[(1,3-Benzothiazol-2-yl)amino]-5-methylpyridazin-3-yl}(methyl)amino)-5-(1-methylazetidin-3-yl)-1,3-thiazole-4-carboxylic acid]
 |  | 7.10 | Cc1cc(N(C)c2nc(C(=O)O)c(N3CCCCC3)s2)nnc1Nc1nc2ccccc2s1 [Example 80, 2-({6-[(1,3-Benzothiazol-2-yl)amino]-5-methylpyridazin-3-yl}(methyl)amino)-5-(piperidin-1-yl)-1,3-thiazole-4-carboxylic acid]
 |  | 7.80 | Cc1cc(N(CCCC(O)CO)c2nc(C(=O)O)cs2)nnc1Nc1nc2ccccc2s1 (stereo not shown) [Example 104, 2-[[6-(1,3-Benzothiazol-2-ylamino)-5-methyl-pyridazin-3-yl]-(4,5-dihydroxypentyl)amino]thiazole-4-carboxylic acid]
 |  | 7.80 | Cc1cc(N(C)c2nc(C(=O)O)c(N3CCC(Oc4ccccc4)CC3)s2)nnc1Nc1nc2ccccc2s1 [Example 81, 2-({6-[(1,3-Benzothiazol-2-yl)amino]-5-methylpyridazin-3-yl}(methyl)amino)-5-(4-phenoxypiperidin-1-yl)-1,3-thiazole-4-carboxylic acid]
 | ≤ 4.89 | 7.52 | Cc1c(Nc2nc3ccccc3s2)nnc(Nc2nc(C(=O)O)cs2)c1C1CC1 [Example 19, 2-({6-[(1,3-Benzothiazol-2-yl)amino]-4-cyclopropyl-5-methylpyridazin-3-yl}amino)-1,3-thiazole-4-carboxylic acid]
 |  | 5.62 | Cc1cc(N(C)c2nc(C(=O)O)c(C3CCN(C)CC3)s2)nnc1Nc1nc2ccccc2s1 [Example 99, 2-({6-[(1,3-Benzothiazol-2-yl)amino]-5-methylpyridazin-3-yl}(methyl)amino)-5-(1-methylpiperidin-4-yl)-1,3-thiazole-4-carboxylic acid]
 |  | 7.04 | Cc1cc(N(C)c2nc(C(=O)O)c(N3CC[C@@H](Oc4ccccc4)C3)s2)nnc1Nc1nc2ccccc2s1 [Example 79, 2-({6-[(1,3-Benzothiazol-2-yl)amino]-5-methylpyridazin-3-yl}(methyl)amino)-5-[(3R)-3-phenoxypyrrolidin-1-yl]-1,3-thiazole-4-carboxylic acid]
 |  | 7.85 | Cc1cc(N(CC(O)CO)c2nc(C(=O)O)cs2)nnc1Nc1nc2ccccc2s1 (stereo not shown) [Example 103, 2-[[6-(1,3-Benzothiazol-2-ylamino)-5-methyl-pyridazin-3-yl]-(2,3-dihydroxypropyl)amino]thiazole-4-carboxylic acid]
